Source: patent US20070117864A1, “Composition for preventing and treating hepatoma” (Tokyo University of Agr. & Tech. TLO Co., Ltd., priority 2003, published 2007)
Marks after values point to notes of the source that are not given here.

Assays:
[1] = liver lipid levels in hepatoma-bearing rats; format: in vivo, rat; settings: mean ± SEM of 11 rats
Method: (§1) Male Donryu rats of four weeks old were purchased from NRC Haruna, Gumma, Japan, and were preliminarily fed for 6 days in quintuple cages in a room with a controlled environment with light period of 8:00 to 20:00, room temperature of 22±1° C., and relative humidity of 60±5%. For the first 3 days, the animals were fed ad libitum with a stock pellet diet (CE-2; CLEA Japan, Tokyo), and for the next 3 days, they were fed a basal diet containing 20% milk casein (20C) (Table 1) ad libitum together with tap water in a glass container. Following the completion of this preparatory raising, the rats were divided into three groups (11 animals per group) with equal average body weights of the respective groups were equal, and 1.0×10^7 of AH109A cells suspended in PBS (−) were transplanted in the back of all the rats. From the time immediately after transplantation, in the respective experimental groups, the animals were fed the experimental diets shown in Table 2.
(§2) During the experimental period, the body weight, food intake and solid tumor size (sum of length, width and height) were measured everyday. On the day that the animals were killed, animals were deprived of experimental diets at 9:00, but freely given water until they were killed 4 hours later. Blood was collected from carotid, and the liver and solid tumors were excised. The collected blood was allowed to stand for approximately 2 hours at room temperature, and then centrifuged for 10 minutes at 3000 rpm (1750×g), 4° C., to obtain serum. This blood serum was frozen and stored at −20° C. The livers and solid tumors were washed with physiological saline, blotted on filter paper, and weighed. Furthermore, feces from the 19th to 21st days after transplantation were collected, and these feces were frozen and stored at −20° C. for the measurement of the amounts of steroids excreted from the body.
Total lipids were extracted from the liver for the measurement of lipid levels by the method of Folch et al. (FOLCH J, LEES M, SLOAN-STANLEY G H, A simple method for the isolation and purification of total lipids from animal tissues, J. Biol. Chem. 226: 497-509, 1957). Approximately 0.5 g of liver tissue was weighed out, this tissue was homogenized using a Polytron homogenizer (Type PT10/35, Kinematica, Switzerland) in 5 ml of methanol; then, 10 ml of chloroform was added and mixed, the resulting preparation was allowed to stand overnight, and then filtered. […]
The Ch content was measured by the Zak method (Zak B., Simple rapid microtechnic for serum total cholesterol, Am. J. Clin. Path. 27, 583-588, 1957). […] The resulting mixture was agitated and this preparation was allowed to stand until cool; then, the absorbance at 560 nm thereof was measured with Ch as a standard. […]

[2] = fecal steroid excretion in hepatoma-bearing rats; format: in vivo, rat; settings: for Steroid excretion Bile acids / Steroid excretion Neutral sterols: feces, final two days, mean ± SEM of 11 rats
Method: as §1, §2
The amounts of fecal steroids, neutral sterol (NS) and bile acid (BA), excreted into feces were measured. The feces were dried at 60° C., and the dry weight was measured; then, the feces were pulverized using a mixer and a mortar and pestle. Approximately 100 mg of feces was precisely weighed and placed in a screw-capped test tube, and then was saponified for 1 hour at 70° C. by adding 1.5 ml of 4 N potassium hydroxide solution and 1 ml of ethanol. The NS was extracted by transferring the n-hexane layer to a test tube by adding 3 ml of n-hexane to a test tube, shaking this mixture and then subjecting to centrifugal separation at 3000 rpm (1750×g) for 10 minutes. The same operation was performed three times. Subsequently, with […] of distilled water to dilute potassium hydroxide concentration thereof to 1.2 N, and the mixture was subjected to a high-pressure treatment (autoclaved) for 3 hours at 121° C., to deconjugate the conjugated BA. After the preparation was allowed to stand until cool, BA was extracted by adding 3 ml of diethyl ether after adjusting the pH of the solution to 1 with 0.8 ml of hydrochloric acid, and the resulting mixture was shaked; then, subjecting this preparation to centrifugal separation for 10 minutes at 3000 rpm (1750×g), to transfer the diethyl ether layer to a test tube. This operation was performed three times.
The n-hexane extract was dried; then, was added with 0.4 ml of isopropanol and 1.6 ml of 10% Triton X-100. to dissolve the NS. An aliquot (0.24 ml) of this solution was sampled, and was subjected to measurement of NS using a cholesterol C test Wako. […]

## O=C1OCC(Cc2cccc(O)c2)C1Cc1cccc(O)c1 (stereo not drawn) [Enterolactone, enterolactone]
[1]; diet 10 ppm
  Liver lipid level Total cholesterol: 5.15 ± 0.43 μmol/g liver
  Liver lipid level Triglyceride: 43.8 ± 3.83 μmol/g liver
[1]; diet 100 ppm
  Liver lipid level Total cholesterol: 5.47 ± 0.40 μmol/g liver
  Liver lipid level Triglyceride: 42.8 ± 7.05 μmol/g liver
[2]; ENL diet groups versus control diet group
  amounts of neutral sterol and bile acid excreted into the feces: significant and dose-dependent increase
[2]; diet 10 ppm
  Steroid excretion Bile acids: 18.7 ± 1.49^ab μmol/2 days
  Steroid excretion Neutral sterols: 29.5 ± 2.7^b μmol/2 days
[2]; diet 100 ppm
  Steroid excretion Bile acids: 20.8 ± 1.89^b μmol/2 days
  Steroid excretion Neutral sterols: 30.9 ± 2.18^b μmol/2 days
